Test results as given in patent US12077503B2, “Substituted cyclic amides and their use as herbicides” (FMC CORPORATION, priority 2015, dated 2024).

Key:
Format in all cases: in vivo
[1] = tested on: giant foxtail (Setaria faberii); experiment: Test A postemergence; conditions: Setaria faberi, post-emergence, 240 h, postemergence; for pest or weed control at 125 g/ha: 125 g ai/ha, visual injury vs untreated controls after approx. 10 d, 0 = no effect, 100 = complete control, read-out: Foxtail, Giant plant response rating (0 to 100 scale); for pest or weed control at 500 g/ha: 500 g ai/ha, 0 to 100 scale, 0 is no effect, 100 is complete control, read-out: Foxtail, Giant plant response rating
How it was run: (§1)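 Visual injury scores from 0, no effect, to 100, complete control, were assigned versus untreated controls roughly 10 d after treatment in the greenhouse. Test chemicals, formulated with surfactant in a non-phytotoxic solvent, were applied to planted seeds as a preemergence soil spray or postemergence to one- to two-leaf plants 2 to 10 cm tall, in loam–sand soil.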

[2] = tested on: ryegrass, Italian (Italian ryegrass, Lolium multiflorum); experiment: Test A postemergence; conditions: Lolium multiflorum, post-emergence, 240 h, postemergence; for pest or weed control at 125 g/ha: 125 g ai/ha, visual injury vs untreated controls after approx. 10 d, 0 = no effect, 100 = complete control, read-out: Ryegrass, Italian plant response rating (0 to 100 scale); for pest or weed control at 500 g/ha: 500 g ai/ha, 0 to 100 scale, 0 is no effect, 100 is complete control, read-out: Ryegrass, Italian plant response rating
How it was run: as §1

[3] = tested on: ragweed (common ragweed, Ambrosia elatior); experiment: Test A postemergence; conditions: Ambrosia artemisiifolia, post-emergence, 240 h, postemergence; for pest or weed control at 125 g/ha: 125 g ai/ha, visual injury vs untreated controls after approx. 10 d, 0 = no effect, 100 = complete control, read-out: Ragweed plant response rating (0 to 100 scale); for pest or weed control at 500 g/ha: 500 g ai/ha, 0 to 100 scale, 0 is no effect, 100 is complete control, read-out: Ragweed plant response rating
How it was run: as §1

[4] = tested on: pigweed (Amaranthus retroflexus); experiment: Test A postemergence; conditions: Amaranthus retroflexus, post-emergence, 240 h, postemergence; for pest or weed control at 125 g/ha: 125 g ai/ha, visual injury vs untreated controls after approx. 10 d, 0 = no effect, 100 = complete control, read-out: Pigweed plant response rating (0 to 100 scale); for pest or weed control at 500 g/ha: 500 g ai/ha, 0 to 100 scale, 0 is no effect, 100 is complete control, read-out: Pigweed plant response rating
How it was run: as §1

corn (Zea mays) = experiment: Test A postemergence; conditions: Zea mays, post-emergence, 240 h, postemergence; for plant injury at 125 g/ha: 125 g ai/ha, visual injury vs untreated controls after approx. 10 d, 0 = no effect, 100 = complete control, read-out: Corn plant response rating (0 to 100 scale); for plant injury at 500 g/ha: 500 g ai/ha, 0 to 100 scale, 0 is no effect, 100 is complete control, read-out: Corn plant response rating
How it was run: as §1

[5] = tested on: barnyardgrass (Echinochloa crus-galli); experiment: Test A postemergence; conditions: Echinochloa crus-galli, post-emergence, 240 h, postemergence; for pest or weed control at 125 g/ha: 125 g ai/ha, visual injury vs untreated controls after approx. 10 d, 0 = no effect, 100 = complete control, read-out: Barnyardgrass plant response rating (0 to 100 scale); for pest or weed control at 500 g/ha: 500 g ai/ha, 0 to 100 scale, 0 is no effect, 100 is complete control, read-out: Barnyardgrass plant response rating
How it was run: as §1

Kochia (Kochia scoparia) [6] = experiment: Test A postemergence; conditions: Bassia scoparia, post-emergence, 240 h, postemergence; for pest or weed control at 125 g/ha: 125 g ai/ha, visual injury vs untreated controls after approx. 10 d, 0 = no effect, 100 = complete control, read-out: Kochia plant response rating (0 to 100 scale); for pest or weed control at 500 g/ha: 500 g ai/ha, 0 to 100 scale, 0 is no effect, 100 is complete control, read-out: Kochia plant response rating
How it was run: as §1

[7] = tested on: Galium (catchweed bedstraw, Galium aparine); experiment: Test A postemergence; conditions: Galium, post-emergence, 240 h, postemergence; for pest or weed control at 125 g/ha: 125 g ai/ha, visual injury vs untreated controls after approx. 10 d, 0 = no effect, 100 = complete control, read-out: Galium plant response rating (0 to 100 scale); for pest or weed control at 500 g/ha: 500 g ai/ha, 0 to 100 scale, 0 is no effect, 100 is complete control, read-out: Galium plant response rating
How it was run: as §1

[8] = tested on: blackgrass (Alopecurus myosuroides); experiment: Test A postemergence; conditions: Alopecurus myosuroides, post-emergence, 240 h, postemergence; for pest or weed control at 125 g/ha: 125 g ai/ha, visual injury vs untreated controls after approx. 10 d, 0 = no effect, 100 = complete control, read-out: Blackgrass plant response rating (0 to 100 scale); for pest or weed control at 500 g/ha: 500 g ai/ha, 0 to 100 scale, 0 is no effect, 100 is complete control, read-out: Blackgrass plant response rating
How it was run: as §1

[9] = tested on: giant foxtail (Setaria faberii); experiment: Test A preemergence; conditions: Setaria faberi, pre-emergence, 240 h, preemergence, 0 to 100 scale where 0 is no effect and 100 is complete control, read-out: Foxtail, Giant plant response rating; for pest or weed control at 125 g/ha: 125 g ai/ha, visual injury rating, approximately 10 d; for pest or weed control at 500 g/ha: 500 g ai/ha
How it was run: as §1

[10] = tested on: ryegrass, Italian (Italian ryegrass, Lolium multiflorum); experiment: Test A preemergence; conditions: Lolium multiflorum, pre-emergence, 240 h, preemergence, 0 to 100 scale where 0 is no effect and 100 is complete control, read-out: Ryegrass, Italian plant response rating; for pest or weed control at 125 g/ha: 125 g ai/ha, visual injury rating, approximately 10 d; for pest or weed control at 500 g/ha: 500 g ai/ha
How it was run: as §1

[11] = tested on: ragweed (common ragweed, Ambrosia elatior); experiment: Test A preemergence; conditions: Ambrosia artemisiifolia, pre-emergence, 240 h, preemergence, 0 to 100 scale where 0 is no effect and 100 is complete control, read-out: Ragweed plant response rating; for pest or weed control at 125 g/ha: 125 g ai/ha, visual injury rating, approximately 10 d; for pest or weed control at 500 g/ha: 500 g ai/ha
How it was run: as §1

[12] = tested on: pigweed (Amaranthus retroflexus); experiment: Test A preemergence; conditions: Amaranthus retroflexus, pre-emergence, 240 h, preemergence, 0 to 100 scale where 0 is no effect and 100 is complete control, read-out: Pigweed plant response rating; for pest or weed control at 125 g/ha: 125 g ai/ha, visual injury rating, approximately 10 d; for pest or weed control at 500 g/ha: 500 g ai/ha
[13] = tested on: barnyardgrass (Echinochloa crus-galli); experiment: Test A preemergence; conditions: Echinochloa crus-galli, pre-emergence, 240 h, preemergence, 0 to 100 scale where 0 is no effect and 100 is complete control, read-out: Barnyardgrass plant response rating; for pest or weed control at 125 g/ha: 125 g ai/ha, visual injury rating, approximately 10 d; for pest or weed control at 500 g/ha: 500 g ai/ha
How it was run: as §1

Kochia (Kochia scoparia) [14] = experiment: Test A preemergence; conditions: Bassia scoparia, pre-emergence, 240 h, preemergence, 0 to 100 scale where 0 is no effect and 100 is complete control, read-out: Kochia plant response rating; for pest or weed control at 125 g/ha: 125 g ai/ha, visual injury rating, approximately 10 d; for pest or weed control at 500 g/ha: 500 g ai/ha
How it was run: as §1

## O=C1NC[C@H](c2cccc(C(F)(F)F)c2)C1C(=O)Nc1c(F)cccc1CO (stereo partly drawn) [Compound 1240]
[1]
  pest or weed control at 125 g/ha: 0%
  pest or weed control at 500 g/ha: 0%
[2]
  pest or weed control at 125 g/ha: 0%
  pest or weed control at 500 g/ha: 0%
[3]
  pest or weed control at 125 g/ha: 0%
  pest or weed control at 500 g/ha: 0%
[4]
  pest or weed control at 125 g/ha: 0%
  pest or weed control at 500 g/ha: 0%
Corn (Zea mays)
  plant injury at 125 g/ha: 0%
  plant injury at 500 g/ha: 0%
[5]
  pest or weed control at 125 g/ha: 0%
  pest or weed control at 500 g/ha: 0%
Kochia (Kochia scoparia) [6]
  pest or weed control at 125 g/ha: 0%
  pest or weed control at 500 g/ha: 0%
[7]
  pest or weed control at 125 g/ha: 0%
  pest or weed control at 500 g/ha: 0%
[8]
  pest or weed control at 125 g/ha: 0%
  pest or weed control at 500 g/ha: 0%
[9]
  pest or weed control at 125 g/ha: 0%
  pest or weed control at 500 g/ha: 0%
[10]
  pest or weed control at 125 g/ha: 0%
  pest or weed control at 500 g/ha: 0%
[11]
  pest or weed control at 125 g/ha: 0%
  pest or weed control at 500 g/ha: 0%
[12]
  pest or weed control at 125 g/ha: 0%
  pest or weed control at 500 g/ha: 0%
[13]
  pest or weed control at 125 g/ha: 0%
  pest or weed control at 500 g/ha: 0%
Kochia (Kochia scoparia) [14]
  pest or weed control at 125 g/ha: 0%
  pest or weed control at 500 g/ha: 0%

## O=C1NC[C@H](c2cccc(C(F)(F)F)c2)C1C(=O)Nc1ccccc1CO (stereo partly drawn) [Compound 1244]
[1]
  pest or weed control at 125 g/ha: 50%
  pest or weed control at 500 g/ha: 90%
[2]
  pest or weed control at 125 g/ha: 0%
  pest or weed control at 500 g/ha: 30%
[3]
  pest or weed control at 125 g/ha: 0%
  pest or weed control at 500 g/ha: 0%
[4]
  pest or weed control at 125 g/ha: 0%
  pest or weed control at 500 g/ha: 0%
Corn (Zea mays)
  plant injury at 125 g/ha: 0%
  plant injury at 500 g/ha: 40%
[5]
  pest or weed control at 125 g/ha: 50%
  pest or weed control at 500 g/ha: 80%
Kochia (Kochia scoparia) [6]
  pest or weed control at 125 g/ha: 0%
  pest or weed control at 500 g/ha: 0%
[7]
  pest or weed control at 125 g/ha: 0%
  pest or weed control at 500 g/ha: 20%
[8]
  pest or weed control at 125 g/ha: 0%
  pest or weed control at 500 g/ha: 50%
[9]
  pest or weed control at 125 g/ha: 90%
  pest or weed control at 500 g/ha: 90%
[10]
  pest or weed control at 125 g/ha: 0%
  pest or weed control at 500 g/ha: 50%
[11]
  pest or weed control at 125 g/ha: 0%
  pest or weed control at 500 g/ha: 0%
[12]
  pest or weed control at 125 g/ha: 0%
  pest or weed control at 500 g/ha: 0%
[13]
  pest or weed control at 125 g/ha: 80%
  pest or weed control at 500 g/ha: 90%
Kochia (Kochia scoparia) [14]
  pest or weed control at 125 g/ha: 0%
  pest or weed control at 500 g/ha: 0%
